Laboratory results published in patent US6437128B1, “Cribrostatins 3-5” (Arizona Board of Regents, priority 2001, dated 2002).
Converted amounts (≈) assume the structure as drawn. “And” between values parts separate entries of the source, which are not always exact repeats. Equal values may be shown once.

Assays:
SW-620 = test: NCI 60-cell screen; type: cell-based, human; details: Homo sapiens, averaged, quadruplicate, upper limit 10^−5 M, read-out: negative log10 GI50 (converted)
RPMI-8226 = test: NCI 60-cell screen; type: cell-based, human; details: Homo sapiens, averaged, quadruplicate, upper limit 10^−5 M, read-out: negative log10 GI50 (converted)
SF-295 = test: NCI 60-cell screen; type: cell-based, human; details: Homo sapiens, averaged, quadruplicate, upper limit 10^−5 M, read-out: negative log10 GI50 (converted)
[1] = test system: Bacillus subtilis (Presque Isle 620); test: Antimicrobial disk diffusion; type: cell-based; details: listed as 5
A549/ATCC = test: NCI 60-cell screen; type: cell-based, human; details: Homo sapiens, averaged, quadruplicate, upper limit 10^−5 M, read-out: negative log10 GI50 (converted)
HOP-62 = test: NCI 60-cell screen; type: cell-based, human; details: Homo sapiens, averaged, quadruplicate, upper limit 10^−5 M, read-out: negative log10 GI50 (converted)
MCF7 = test: NCI 60-cell screen; type: cell-based, human; details: Homo sapiens, averaged, quadruplicate, upper limit 10^−5 M, read-out: negative log10 GI50 (converted)
[2] = test system: Enterobacter cloacae (ATCC 13047); test: Antimicrobial disk diffusion; type: cell-based
[3] = test system: Candida albicans (ATCC 90028); test: Antimicrobial disk diffusion; type: cell-based
OVCAR-3 = test: NCI 60-cell screen; type: cell-based, human; details: Homo sapiens, averaged, quadruplicate, upper limit 10^−5 M, read-out: negative log10 GI50 (converted)
[4] = test system: Stenotrophomonas maltophilia (ATCC 13637); test: Antimicrobial disk diffusion; type: cell-based
[5] = test system: Neisseria gonorrhoeae (ATCC 49226); test: Antimicrobial disk diffusion; type: cell-based
[6] = test system: P388 lymphocytic leukemia; test: in vitro murine P388 lymphocytic leukemia (PS) cell growth inhibition; type: cell-based
Source text: The fractions obtained from the 1988-89 recollection of Cribrochalina so. (See: Pettit, G. R.; Collins, J. C.; Herald, D. L.; Doubek, D. L.; Boyd, M. R.; Schmidt, J. M.; Hooper, J. N. A.; Tackett, L. P. Can. J. Cheim. 1992, 70, 1170-1175) beginning with the 195 g dichloromethane partition fraction were re-examined guided by bioassay results using the murine P388 lymphocytic leukemia.
Individual cell line response values are provided in the Experimental.

MCF7/ADR-RES = test: NCI 60-cell screen; type: cell-based, human; details: Homo sapiens, averaged, quadruplicate, upper limit 10^−5 M, read-out: negative log10 GI50 (converted)
IGROV1 = test: NCI 60-cell screen; type: cell-based, human; details: Homo sapiens, IGROV-1, averaged, quadruplicate, upper limit 10^−5 M, read-out: negative log10 GI50 (converted)
SNB-75 = test: NCI 60-cell screen; type: cell-based, human; details: Homo sapiens, averaged, quadruplicate, upper limit 10^−5 M, read-out: negative log10 GI50 (converted)
[7] = test system: Cryptococcus neoformans (ATCC 90112); test: Antimicrobial disk diffusion; type: cell-based
COLO 205 = test: NCI 60-cell screen; type: cell-based, human; details: Homo sapiens, averaged, quadruplicate, upper limit 10^−5 M, read-out: negative log10 GI50 (converted)
[8] = test system: Micrococcus luteus (Presque Isle 456); test: Antimicrobial disk diffusion; type: cell-based; details: listed as 5
MOLT-4 = test: NCI 60-cell screen; type: cell-based, human; details: Homo sapiens, averaged, quadruplicate, upper limit 10^−5 M, read-out: negative log10 GI50 (converted)
ACHN = test: NCI 60-cell screen; type: cell-based, human; details: Homo sapiens, averaged, quadruplicate, upper limit 10^−5 M, read-out: negative log10 GI50 (converted)
[9] = test system: Penicillin-resistant N. gonorrhoeae (clinical isolate); test: Antimicrobial disk diffusion; type: cell-based; details: listed as 5
HL-60 (TB) = test: NCI 60-cell screen; type: cell-based, human; details: Homo sapiens, averaged, quadruplicate, upper limit 10^−5 M, read-out: negative log10 GI50 (converted)
RXF-393 = test: NCI 60-cell screen; type: cell-based, human; details: Homo sapiens, averaged, quadruplicate, upper limit 10^−5 M, read-out: negative log10 GI50 (converted)
SF-539 = test: NCI 60-cell screen; type: cell-based, human; details: Homo sapiens, averaged, quadruplicate, upper limit 10^−5 M, read-out: negative log10 GI50 (converted)
UACC-62 = test: NCI 60-cell screen; type: cell-based, human; details: Homo sapiens, averaged, quadruplicate, upper limit 10^−5 M, read-out: negative log10 GI50 (converted)
MDA-N = test: NCI 60-cell screen; type: cell-based, human; details: Homo sapiens, averaged, quadruplicate, upper limit 10^−5 M, read-out: negative log10 GI50 (converted)
U251 = test: NCI 60-cell screen; type: cell-based, human; details: Homo sapiens, U-251, averaged, quadruplicate, upper limit 10^−5 M, read-out: negative log10 GI50 (converted)
[10] = test system: Invasive S. pneumoniae (clinical isolate); test: Antimicrobial disk diffusion; type: cell-based
SK-MEL-5 = test: NCI 60-cell screen; type: cell-based, human; details: Homo sapiens, averaged, quadruplicate, upper limit 10^−5 M, read-out: negative log10 GI50 (converted)
SN12C = test: NCI 60-cell screen; type: cell-based, human; details: Homo sapiens, averaged, quadruplicate, upper limit 10^−5 M, read-out: negative log10 GI50 (converted)
OVCAR-8 = test: NCI 60-cell screen; type: cell-based, human; details: Homo sapiens, averaged, quadruplicate, upper limit 10^−5 M, read-out: negative log10 GI50 (converted)
K-562 = test: NCI 60-cell screen; type: cell-based, human; details: Homo sapiens, K562, averaged, quadruplicate, upper limit 10^−5 M, read-out: negative log10 GI50 (converted)
OVCAR4 = test: NCI 60-cell screen; type: cell-based, human; details: Homo sapiens, OVCAR-4, averaged, quadruplicate, upper limit 10^−5 M, read-out: negative log10 GI50 (converted)
[11] = test system: Staphylococcus aureus (ATCC 29213); test: Antimicrobial disk diffusion; type: cell-based
CCRF-CEM = test: NCI 60-cell screen; type: cell-based, human; details: Homo sapiens, averaged, quadruplicate, upper limit 10^−5 M, read-out: negative log10 GI50 (converted)
786-O = test: NCI 60-cell screen; type: cell-based, human; details: Homo sapiens, 786-0, averaged, quadruplicate, upper limit 10^−5 M, read-out: negative log10 GI50 (converted)
PC-3 = test: NCI 60-cell screen; type: cell-based, human; details: Homo sapiens, averaged, quadruplicate, upper limit 10^−5 M, read-out: negative log10 GI50 (converted)
MALME-3M = test: NCI 60-cell screen; type: cell-based, human; details: Homo sapiens, averaged, quadruplicate, upper limit 10^−5 M, read-out: negative log10 GI50 (converted)
SF-268 = test: NCI 60-cell screen; type: cell-based, human; details: Homo sapiens, averaged, quadruplicate, upper limit 10^−5 M, read-out: negative log10 GI50 (converted)
T-47D = test: NCI 60-cell screen; type: cell-based, human; details: Homo sapiens, T47D, averaged, quadruplicate, upper limit 10^−5 M, read-out: negative log10 GI50 (converted)
HS578T = test: NCI 60-cell screen; type: cell-based, human; details: Homo sapiens, Hs-578T, averaged, quadruplicate, upper limit 10^−5 M, read-out: negative log10 GI50 (converted)

C/C=C(/C)C(=O)OC[C@H]1C2=C(C=C3[C@H]4c5c(O)c(OC)c(C)c(O)c5C(=O)[C@@H](C(=O)N31)N4C)C(=O)C(C)=C(OC)C2=O [Cribrostatin 4, cribrostatin 4]
GI50 (SW-620): 6.92 µM
GI50 (RPMI-8226): 6.17 µM
GI50 (SF-295): 8.91 µM
Minimum inhibitory concentration [1]: 12.5-25 μg/disk
GI50 (A549/ATCC): 8.71 µM
GI50 (HOP-62): 7.59 µM
GI50 (MCF7): 8.13 µM
Minimum inhibitory concentration [2]: * (No inhibition at 100 μg/disk)
Minimum inhibitory concentration [3]: * (No inhibition at 100 μg/disk)
GI50 (OVCAR-3): 3.63 µM
Minimum inhibitory concentration [4]: * (No inhibition at 100 μg/disk)
Minimum inhibitory concentration [5]: 6.25-12.5 μg/disk
GI50 ([6]; Mouse Leukemia P388, read-out: GI50): 24.6 µg/mL (≈ 42.5 µM)
PS ED50 (P388 ED50) ([6]; in vitro P388 lymphocytic leukemia, listed as cribrostatin 4): 25 µg/mL and 24 µg/mL
GI50 (MCF7/ADR-RES): 6.76 µM
GI50 (IGROV1): 8.51 µM
GI50 (SNB-75): 5.62 µM
Minimum inhibitory concentration [7]: * (No inhibition at 100 μg/disk)
GI50 (COLO 205): 8.13 µM
Minimum inhibitory concentration [8]: * (No inhibition at 100 μg/disk)
GI50 (MOLT-4): 1.91 µM
GI50 (ACHN): 7.94 µM
Minimum inhibitory concentration [9]: 1.56-3.12 μg/disk
GI50 (HL-60 (TB)): 5.37 µM
GI50 (RXF-393): 5.25 µM
GI50 (SF-539): 5.75 µM
GI50 (UACC-62): 9.77 µM
GI50 (MDA-N): 2.19 µM
GI50 (U251): 6.46 µM
Minimum inhibitory concentration [10]: * (No inhibition at 100 μg/disk)
GI50 (SK-MEL-5): 8.13 µM
GI50 (SN12C): 7.08 µM
GI50 (OVCAR-8): 4.27 µM
GI50 (K-562): 4.37 µM
GI50 (OVCAR4): 1.82 µM
Minimum inhibitory concentration [11]: * (No inhibition at 100 μg/disk)
GI50 (CCRF-CEM): 1.7 µM
GI50 (786-O): 6.17 µM
GI50 (PC-3): 9.12 µM
GI50 (MALME-3M): 0.389 µM
GI50 (SF-268): 9.55 µM
GI50 (T-47D): 2.09 µM
GI50 (HS578T): 8.71 µM
